These results are taken from patent publication US20180092895A1, “METHOD OF TREATMENT OF HEPATITIS C” (priority 2016, published 2018).

The test system of one series is HCV replicon. Description: HCV replicon assay (antiviral activity, luciferase endpoint). The format is cell-based, hepatitis C virus. The text has this: (§1) Stable HCV replicons of different genotypes may be used for anti-HCV evaluation. We used the subgenomic HCV replicons of genotype 1a (H77 strain), 1b (Con1 strain), and 2a (JFH-1 strain), which are Huh7 human hepatoma cell lines that contains an HCV replicon.
The HCV replicon antiviral evaluation assay examined the effects of compounds at six serial dilutions. Human interferon alpha-2b (rIFNα-2b) and/or Sofosbuvir were included in each run as a positive control compound.
(§2) Briefly, the replicon cells were plated at 5,000 cells/well into 96-well plates that were dedicated for the analysis of cell numbers (cytotoxicity) or antiviral activity. On the following day, samples were diluted with assay media and added to the appropriate wells. Cells were processed 72 hours later when the cells were still sub-confluent. For the luciferase endpoint assay, HCV replicon levels were assessed as replicon-derived Luc activity. The concentration of drug that reduced cell viability was assessed by the fluorometric CytoTox-1 cell proliferation assay (Promega), (expressed as cell numbers). For the qRT-PCR/TaqMan assay, total RNA was extracted from the replicon cells using RNeasy 96 kit (Qiagen) according to the manufacturer's protocol. Real-time RTPCR/TaqMan assays were performed to measure copy numbers of the replicon RNA and cellular ribosomal RNA. Where applicable EC50 (concentration inhibiting HCV replicon by 50%), EC90 (concentration inhibiting HCV replicon by 90%), CC50 (concentration decreasing cell viability by 50%), CC90 (concentration decreasing cell viability by 90%) and SI (selectivity indices: CC50/EC50 and CC90/EC90) values were derived.

A short description of series [1]: HCV replicon assay, cell viability (CytoTox-1). The format is cell-based. Particulars: human, Huh7 hepatoma cells containing a subgenomic HCV replicon, In vitro HCV replicon assay, post-infection, read-out: CC50 (concentration decreasing cell viability by 50%). The method, then: as §1
as §2, with “Where applicable EC50 (concentration inhibiting HCV replicon by 50%), EC90 (concentration inhibiting HCV replicon by 90%), CC50 (concentration decreasing cell viability by 50%), CC90 (concentration decreasing cell viability by 90%) and SI (selectivity indices: CC50/EC50 and CC90/EC90) values were derived.” left out
A general note: Replicon systems follow genome replication, usually without infectious particles.

The test system of series [2] is cell culture-derived HCV (HCVcc). Description: microbe, parasite or virus in culture. Format: cell-based, hepatitis C virus. The method, then:
(§3) Huh7.5 cells were grown in Dulbecco's modified essential media (DMEM), 10%0/fetal bovine serum (FBS), 1% penicillin-streptomycin (pen-strep), 1% Non-essential amino acids (NEAA) in a 5% CO2 incubator at 37° C. Huh7.5 cells were seeded at 1×10^4 cells per well into 96-well plates according to Southern Research Institute standard format. Test articles were serially diluted with DMEM plus 5% FBS. The diluted compound in the amount of […] was mixed with equal volume of cell culture-derived HCV (HCVcc), then applied to appropriate wells in the plate. Human interferon alpha-2b (rIFNα-2b) and/or Sofosbuvir were included as a positive control. After 72 hr incubation at 37° C., the cells were lysed for measurement of luciferase activity using Renilla Luciferase Assay System (Promega) according to manufacturer's instruction. The number of cells in each well were determined by CytoTox-1 reagent (Promega). Test articles were tested at 6 serial dilutions in triplicate to derive, if applicable, EC50 and EC90 (concentration inhibiting HCVcc infectivity by 50% and 90%, respectively), CC50 (concentration decreasing cell viability by 50%) and SI (selectivity index: CC50/EC50) values (Table 1).

The nature of another series: in vitro. The format is cell-based. Conditions: human. The procedure:
as §3

pEC50: −log10 of the molar value.

Regarding `COC(=O)C1=C(C)NC(C)=C(C(=O)OC(C)C)C1c1cccc2nonc12` (centres unmarked) [Isradipine, isradipine], the “anti-Hepatitis C activity (in words)” value (with HCV replicon (HCV replicon assay); in series [2] (hepatitis C viral infectivity assay)) was “significant anti-Hepatitis C activity” throughout. For the same molecule, the pEC50 in the series with HCV replicon (Hepatitis C virus, GT1B, 72 h, read-out: EC50 (concentration inhibiting HCV replicon by 50%)) was 4.29; in series [2] (Hepatitis C virus, Huh7.5, 72 h, read-out: EC50 (concentration inhibiting HCVcc infectivity by 50%)) it was 4.90. The “Selectivity index (CC50/EC50)” value in the series with HCV replicon (In vitro HCV replicon assay, post-infection) came out at 0.99; in series [2] (In vitro HCV cc assay, pre-infection), 4.07. For the same molecule, the CC50 at 72 h was 50.8 µM in series [1] and 51.2 µM in the series “in vitro”.
